How the values were obtained:
Assay type in all cases: cell-based
[1] = test system: pSTAT3 in HEPG2 (liver cancer) cells induced by IL-6; assay: Inhibition of pSTAT3 (IL-6 induced phosphorylation of STAT3, Phospho-STAT3 (Tyr705) Sandwich ELISA); conditions: Homo sapiens, 4 hours compound, then IL-6 (10 ng/mL) 30 minutes
Experimental: The experimental drugs were tested for their effect on phosphorylation of STAT3 in HEPG2 (liver cancer) cells induced by IL-6. Test compounds were dissolved in DMSO at 20 mM and diluted in a growth medium at 2× strength. Final DMSO concentration was less than 0.5%. 100 μL of cell suspension (10×10^4 cells/mL) was added to the wells of 96 well plates and allowed to adhere for 24 hours in a CO2 incubator at 37° C. Following overnight incubation, the culture medium was replaced with 100 μL of fresh growth medium and 100 μL of test compound (s), standard (Curcumin) and growth medium (untreated) wells. The plates were incubated in CO2 incubator at 37° C. for 4 hours. After compound treatment, IL-6 (10 ng/mL) was added to the wells and incubated for 30 minutes to induce pSTAT3.
At the end of the 30 minutes incubation, cells were rinsed with ice-cold PBS and lysed with 1× Cell lysis buffer containing 1 mM PMSF (provided in the kit) on ice for 5 minutes. The cells were scraped off and transferred to an appropriate tube, sonicated on ice and centrifuged for 10 minutes at 4° C. The supernatant (cell lysate) was collected and stored at −80° C. and the levels of pSTAT3 were measured in the cell lysate by Path Scan Phospho-STAT3 (Tyr705) Sandwich ELISA kit (Cell Signaling, Cat No. 7300) by following the kit instructions.

[2] = test system: IL-6 in supernatant of NCIH 460 cells; assay: Measuring IL-6 in culture supernatants (ELISA); conditions: Homo sapiens, NCI-H460, 5 hours incubation
[3] = test system: HCT 116 (colon), NCIH460 (lung) and U251 (glioma) cell lines; assay: Anti-cancer screen (MTT growth inhibition, 48 hours); conditions: Homo sapiens; HCT 116, NCIH460 and U251 cell lines; MTT after 48 hours of incubation;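 further: mean GI50 across the three cell lines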
Experimental: The experimental drugs were screened for anti-cancer activity in three cell lines using five concentrations for each compound. The cell lines—HCT 116 (colon), NCIH460 (lung) and U251 (glioma) were maintained in DMEM containing 10% fetal bovine serum. 96-well microtiter plates are inoculated with cells in 100 μL of cell suspension (5×10^4 cells/mL) for 24 hours at 37° C., 5% CO2, 95% air and 100% relative humidity. A separate plate with these cell lines is also inoculated to determine cell viability before the addition of the compounds (T0)
Following 24-hour incubation, test compounds were added to the 96 well plates. Each plate contains one of the above cell lines and the following samples in triplicate: five different dilutions (0.01, 0.1, 1, 10 and 100 μM) of four test compounds, appropriate dilutions of a cytotoxic standard and growth medium (untreated) wells. Test compounds were dissolved in DMSO to prepare 20 mM stock solutions on the day of drug addition and serial dilutions were carried out in complete growth medium at 2× strength, such that 100 μL added to the wells gave final concentrations (0.01, 0.1, 1, 10 and 100 μM) in the well. SAHA was used as the standard drug in these experiments.
For T0 measurement, 24 hours after seeding the cells, 20 μL of 3-(4,5-dimethyl-2-thiazolyl)-2,5-diphenyl-2H-tetrazolium (MTT) solution per well was added to the ‘T0’ plate and incubated for 3 hours at 37° C. in a CO2 incubator. The plate containing cells and test compounds was treated similarly after 48 hours of incubation. After 3 hours of MTT addition, well contents were aspirated carefully followed by addition of 150 μL DMSO per well. Plates were agitated to ensure dissolution of the formazan crystals in DMSO and absorbance was read at 570 nm (A570).
Percent growth (PG) is calculated relative to the control and zero measurement wells (T0) as follows:
PG values are plotted against drug concentration to derive the following: GI50 is the concentration required to decrease PG by 50% vs control; TGI is the concentration required to decrease PG by 100% vs control and LC50 is the concentration required to decrease PG by 50% vs T0. (Mosmann T. Rapid colorimetric assay for cellular growth and survival: application to proliferation and cytotoxicity assays. (J. Immunol. Methods. 1983, 65 (1-2), 55-63; Anne Monks et al); feasibility of high-flux anticancer drug screen using a diverse panel of cultured human tumor cell lines”. (JNCI, Vol. 83, No. 11, 1991). Results for growth inhibition of synthesized compounds are given in Table-1.

| SMILES | inhibition at 10 µM [1] | inhibition at 10 µM [2] | GI50 [3] |
| --- | --- | --- | --- |
| COC(=O)/C(=C/c1ccc(F)c(C)c1)c1ccc(OCC(O)CNCc2ccc(OC)cc2OC)cc1 (centres unmarked) [Example 1, 2-{4-[3-(2,4-dimethoxybenzylamino)-2-hydroxypropoxy]phenyl}-3-(4-fluoro-3-methylphenyl)acrylic acid methyl ester] | 22.2% | – | – |
| COC(=O)/C(=C/c1ccc(F)cc1)c1ccc(OCC(O)CNCCOc2ccccc2OC)cc1 (centres unmarked) [Example 26, 2-{4-[3-(2-Methoxyphenoxyethylamino)-2-hydroxypropoxy]phenyl}-3-(4-fluorophenyl)acrylic acid methyl ester] | – | 36.2% | 12100 nM |
| COC(=O)/C(=C/c1ccc(Cl)cc1)c1ccc(OCC(O)CNCc2ccccc2)cc1 (centres unmarked) [Example 27, 2-{4-[3-(Benzylamino)-2-hydroxypropoxy]phenyl}-3-(4-chlorophenyl)acrylic acid methyl ester] | – | 32.7% | 6500 nM |
| COC(=O)/C(=C/c1ccc(SC)cc1)c1ccc(OCC(O)CNCc2ccc(OC)cc2OC)cc1 (centres unmarked) [Example 28, 2-{4-[3-(2,4-Dimethoxybenzylamino)-2-hydroxypropoxy]phenyl}-3-(4-(methylthio)phenyl)acrylic acid methyl ester] | – | 78.5% | 1300 nM |
| COC(=O)/C(=C/c1ccc(OCC(O)CNCCOc2ccccc2OC)cc1)c1ccc(OC)cc1 (centres unmarked) [Example 29, 3-{4-[3-(2-Methoxyphenoxyethylamino)-2-hydroxypropoxy]phenyl}-2-(4-(methoxy)phenyl)acrylic acid methyl ester] | – | 64.2% | 1900 nM |
| COC(=O)/C(=C/c1ccc(OCC(O)CNCc2ccccc2)cc1)c1ccc(OC)cc1 (centres unmarked) [Example 30, 3-{4-[3-(Benzylamino)-2-hydroxypropoxy]phenyl}-2-(4-(methoxy)phenyl)acrylic acid methyl ester] | – | 27.8% | 1400 nM |
| COC(=O)/C(=C/c1ccc(OCC(O)CNCc2ccccc2)cc1)c1cccs1 (centres unmarked) [Example 31, 3-{4-[3-(Benzylamino)-2-hydroxypropoxy]phenyl}-2-(thiophen-2-yl)acrylic acid methyl ester] | – | 2.1% | 900 nM |
| COC(=O)/C(=C/c1ccc(OC)cc1OC)c1ccc(OCC(O)CNCc2ccc(OC)cc2OC)cc1 (centres unmarked) [Example 32, 2-{4-[3-(2,4-Dimethoxybenzylamino)-2-hydroxypropoxy]phenyl}-3-(2,4-dimethoxyphenyl)acrylic acid methyl ester] | – | 70.5% | 600 nM |
| COC(=O)/C(=C/c1ccc(OC)cc1OC)c1ccc(OCC(O)CNCCOc2ccccc2OC)cc1 (centres unmarked) [Example 33, 2-{4-[3-(2-Methoxyphenoxyethylamino)-2-hydroxypropoxy]phenyl}-3-(2,4-dimethoxyphenyl)acrylic acid methyl ester] | – | 61.2% | 2600 nM |
| COC(=O)/C(=C/c1ccc(OCC(O)CNCCOc2ccccc2OC)cc1)c1cccs1 (centres unmarked) [Example 34, 3-{4-[3-(2-Methoxyphenoxyethylamino)-2-hydroxypropoxy]phenyl}-2-(thiophen-2-yl)acrylic acid methyl ester] | – | 41.9% | 18700 nM |
| COC(=O)/C(=C/c1ccc(OCC(O)CNCc2ccccc2)cc1)c1ccc(F)cc1 (centres unmarked) [Example 36, 3-{4-[3-(Benzylamino)-2-hydroxypropoxy]phenyl}-2-(4-fluorophenyl)acrylic acid methyl ester] | – | 27.9% | 12000 nM |
| COC(=O)/C(=C/c1ccc(OCC(O)CNCc2ccccc2)cc1)c1ccc(C)cc1 (centres unmarked) [Example 39, 3-{4-[3-(Benzylamino)-2-hydroxypropoxy]phenyl}-2-(4-methylphenyl)acrylic acid methyl ester] | – | 41.8% | 6300 nM |
| COC(=O)/C(=C/c1ccc(OCC(O)CNCCOc2ccccc2OC)cc1)c1ccc(F)cc1 (centres unmarked) [Example 41, 3-{4-[3-(2-Methoxyphenoxyethylamino)-2-hydroxypropoxy]phenyl}-2-(4-fluorophenyl)acrylic acid methyl ester] | – | 68% | 11400 nM |
| COC(=O)/C(=C/c1ccc(OCC(O)CNCCOc2ccccc2OC)cc1)c1ccccc1 (centres unmarked) [Example 42, 3-{4-[3-(2-Methoxyphenoxyethylamino)-2-hydroxypropoxy]phenyl}-2-phenylacrylic acid methyl ester] | – | 13% | 12000 nM |
| COC(=O)/C(=C/c1ccc(OCC(O)CNCc2ccccc2)cc1)c1ccccc1 (centres unmarked) [Example 44, 3-{4-[3-(Benzylamino)-2-hydroxypropoxy]phenyl}-2-phenylacrylic acid methyl ester] | – | 7.7% | 2100 nM |
| COC(=O)/C(=C/c1ccccc1OCC(O)CNCc1ccc(OC)cc1OC)c1ccc(OC)cc1 (centres unmarked) [Example 45, 3-{2-[3-(2,4-Dimethoxybenzylamino)-2-hydroxypropoxy]phenyl}-2-(4-methoxyphenyl)acrylic acid methyl ester] | – | 56% | 1200 nM |
| COC(=O)/C(=C/c1ccccc1OCC(O)CNCCOc1ccccc1OC)c1ccc(OC)cc1 (centres unmarked) [Example 46, 3-{2-[3-(2-Methoxyphenoxyethylamino)-2-hydroxypropoxy]phenyl}-2-(4-methoxyphenyl)acrylic acid methyl ester] | – | 48% | 1600 nM |
| COC(=O)/C(=C/c1ccc(OCC(O)CNCc2ccc(OC)cc2OC)cc1)c1cccc(Cl)c1 (centres unmarked) [Example 47, 3-{4-[3-(2,4-Dimethoxybenzylamino)-2-hydroxypropoxy]phenyl}-2-(3-chlorophenyl)acrylic acid methyl ester] | – | 59% | 1300 nM |
| COC(=O)/C(=C/c1ccc(OCC(O)CNCCOc2ccccc2OC)cc1)c1cccc(Cl)c1 (centres unmarked) [Example 48, 3-{4-[3-(2-Methoxyphenoxyethylamino)-2-hydroxypropoxy]phenyl}-2-(3-chlorophenyl)acrylic acid methyl ester] | – | 9% | 1600 nM |
| COC(=O)/C(=C/c1ccc(OCC(O)CNCCOc2ccccc2OC)cc1)c1cccc(F)c1 (centres unmarked) [Example 51, 3-{4-[3-(2-Methoxyphenoxyethylamino)-2-hydroxypropoxy]phenyl}-2-(3-fluorophenyl)acrylic acid methyl ester] | 49.9% | – | – |
| COC(=O)/C(=C/c1ccc(OCC(O)CNCc2ccc(OC)cc2OC)cc1)c1ccccc1F (centres unmarked) [Example 53, 3-{4-[3-(2,4-Dimethoxybenzylamino)-2-hydroxypropoxy]phenyl}-2-(2-fluorophenyl)acrylic acid methyl ester] | 61.4% | – | – |
| COC(=O)/C(=C/c1ccc(C)s1)c1ccc(OCC(O)CNCc2ccc(OC)cc2OC)cc1 (centres unmarked) [Example 56, 2-{4-[3-(2,4-Dimethoxybenzylamino)-2-hydroxypropoxy]phenyl}-3-(5-methylthiophen-2-yl)acrylic acid methyl ester] | 56.2% | – | – |
| COC(=O)/C(=C/c1ccc(C)s1)c1ccc(OCC(O)CNCCOc2ccccc2OC)cc1 (centres unmarked) [Example 57, 2-{4-[3-(2-Methoxyphenoxyethylamino)-2-hydroxypropoxy]phenyl}-3-(5-methylthiophen-2-yl)acrylic acid methyl ester] | 66.5% | – | – |
